Where two headings read alike, the source gives them in different places.
Target: SOS1 and KRAS G12D (protein-protein interaction) (Homo sapiens, UniProt Q07889)
Assay: KRAS::SOS1 AlphaScreen binding assay
Description: KRAS::SOS1 AlphaScreen Binding Assay
Low IC50 values are indicative of high potency of the SOS1 inhibitor compound in this assay setting:
10 nM (final assay concentration) KRAS G12D, 10 μM (final assay concentration) GDP and 5 nM (final assay concentration) GST-SOS1 are mixed in assay buffer prior to use and kept at room temperature.
AlphaLSA Glutathione Acceptor Beads and AlphaScreen Streptavidin Donor Beads are mixed in assay buffer at a concentration of 10 μg/mL (final assay concentration) each prior to use and kept at room temperature.
Compounds are diluted to a final start concentration of 100 μM and are tested in duplicate. […] For compound a start concentration of 100 μM, 150 nL of compound solution is transferred per well in 11 concentrations in duplicate with serial 1:5 dilutions.
The assay is run using a fully automated robotic system in a darkened room below 100 Lux. 10 μL of KRAS::SOS1 GDP mix is added into columns 1-24 to the 150 nL of compound solution (final dilution in the assay 1:100, final DMSO concentration 1%).
After a 30 minute incubation time 5 μL of bead mix is added into columns 1-23. Plates are kept at room temperature in a darkened incubator. After a further 60 minute incubation, the signal is measured using a PerkinElmer Envision HTS Multilabel Reader using the AlphaScreen specifications from PerkinElmer. Each plate contains the following controls: • diluted DMSO+KRAS::SOS1 GDP mix+bead mix • diluted DMSO+KRAS::SOS1 GDP mix Result Calculation:
IC50 values are calculated and analyzed using a 4 parametric logistic model.

[1] = assay buffer without EDTA (values not marked with an asterisk), read-out: IC50 (SOS1)
[2] = values marked with * in the table, read-out: IC50 (SOS1)
[3] = assay buffer with 100 μM EDTA (values marked with an asterisk), read-out: IC50 (SOS1)

Row | Compound | IC50 (read-out: IC50 (SOS1)) | also measured
1 | COc1cc2nc(C)nc(N[C@H](C)c3cccc(C(F)(F)CO)c3)c2cc1O[C@H]1CCOC1 [I-1] | – | IC50 [1]: 3 nM
2 | CC(=O)N1CC=C(c2ccc3nc(C)nc(N[C@H](C)c4cccc(C(F)(F)F)c4)c3c2)CC1 [I-221] | 11 nM | –
3 | Cc1nc(N[C@H](C)c2cccc(C(F)(F)F)c2)c2cc(-c3ccc(=O)[nH]c3)ccc2n1 [I-100] | – | IC50 [2]: 48 nM
4 | COCC(=O)N1CCC(c2cc3c(N[C@H](C)c4cc(N)cc(C(F)(F)F)c4F)nc(C)nc3cc2OC)CC1 [I-307] | 3 nM | –
5 | Cc1cccc([C@@H](C)Nc2nc(C)nc3ccc(-c4ccc(=O)[nH]c4)cc23)c1 [I-99] | – | IC50 [2]: 29 nM
6 | Cc1cccc([C@@H](C)Nc2nc(C)nc3ccc([C@H]4CC[C@H](C(=O)N5CC(C#N)C5)CC4)cc23)c1 [I-265] | 36 nM | –
7 | COCC(=O)N1CC=C(c2ccc3nc(C)nc(N[C@H](C)c4cc(N)cc(C(F)(F)F)c4)c3c2)CC1 [I-220] | 3 nM | –
8 | COc1cc2nc(C)nc(N[C@H](C)c3cc(N)cc(C(F)(F)F)c3)c2cc1[C@H]1CC[C@@H](C(=O)N2CCN(C)CC2)CC1 [I-354] | 22 nM | –
9 | Cc1nc(N[C@H](C)c2cccc(C(F)(F)F)c2)c2cc(-c3ccc(=O)n(C)c3)c(C)cc2n1 [I-109] | 25 nM | –
10 | Cc1nc(N[C@H](C)c2cc(N)cc(C(F)(F)F)c2)c2cc(C3CCS(=O)(=O)CC3)c(C)cc2n1 [I-321] | 3 nM | –
11 | Cc1nc(N[C@H](C)c2cc(N)cc(C(F)(F)F)c2F)c2cc(C3CCS(=O)(=O)CC3)ccc2n1 [I-310] | 7 nM | –
12 | Cc1nc(N[C@H](C)c2cc(N)cc(C(F)(F)F)c2)c2cc([C@H]3CC[C@H](C(=O)N(C)C)CC3)c(C)cc2n1 [I-352] | 2 nM | –
13 | Cc1nc(N[C@H](C)c2cccc(C(F)(F)F)c2)c2cc(-c3cnn(C4CCNCC4)c3)ccc2n1 [I-168] | – | IC50 [3]: 48 nM
14 | Cc1nc(N[C@H](C)c2cccc(C(F)(F)F)c2)c2cc(C3(O)CCN(C(=O)N(C)C)CC3)ccc2n1 [I-50] | – | IC50 [1]: 23 nM
15 | COc1cc2nc(C)nc(N[C@H](C)c3cccc(C(F)(F)F)c3F)c2cc1[C@]1(O)CC[C@@H](O)CC1 [I-58] | – | IC50: 6 nM
16 | Cc1nc(N[C@H](C)c2cccc(C(F)(F)F)c2)c2cc(-c3ccc(=O)n(CC(=O)O)c3)ccc2n1 [I-341] | – | IC50 [2]: 35 nM
17 | COCCN(C)C(=O)[C@H]1CC[C@@H](c2cc3c(N[C@H](C)c4cc(N)cc(C(F)(F)F)c4)nc(C)nc3cc2OC)CC1 [I-358] | 49 nM | –
18 | CNC(=O)CC(C)c1ccc2nc(C)nc(N[C@H](C)c3cccc(C(F)(F)F)c3)c2c1 (some centres unmarked) [I-375] | 36 nM | –
19 | CCn1ccc(-c2cc3c(N[C@H](C)c4cc(N)cc(C(F)(F)F)c4)nc(C)nc3cc2C)cc1=O [I-349] | 5 nM | –
20 | COCC(=O)N1CCC(O)(c2cc3c(N[C@H](C)c4cccc(C(F)(F)F)c4)nc(C)nc3cc2OC)CC1 [I-47] | – | IC50 [1]: 5 nM
21 | Cc1nc(N[C@H](C)c2cccc(C(F)(F)F)c2)c2cc(C3=CCC(C(=O)N4CCN(C)CC4)CC3)ccc2n1 (some centres unmarked) [I-223] | 27 nM | –
22 | CC(=O)N1CCC(c2cc(C)c3nc(C)nc(N[C@H](C)c4cccc(C)c4)c3c2)CC1 [I-269] | 24 nM | –
23 | CC(=O)N1CCC2(CC1)CC(O)(c1ccc3nc(C)nc(N[C@H](C)c4cccc(C(F)(F)F)c4)c3c1)C2 [I-51] | – | IC50 [1]: 23 nM
24 | Cc1cccc([C@@H](C)Nc2nc(C)nc3ccc(C4CCS(=N)(=O)CC4)cc23)c1 (some centres unmarked) [I-330] | – | IC50 [2]: 20 nM
25 | Cc1nc(N[C@H](C)c2cccc(C(F)(F)F)c2)c2cc([C@H]3CC[C@H](C(=O)N(C)C)CC3)ccc2n1 [I-229] | 7 nM | –
26 | CNC(=O)CC(C)c1cc2c(N[C@H](C)c3cccc(C(F)(F)F)c3)nc(C)nc2cc1OC (some centres unmarked) [I-381] | 17 nM | –
27 | COCC(=O)N1CCC(c2cc3c(N[C@H](C)c4cccc(C(F)(F)CO)c4)nc(C)nc3cc2OC)CC1 [I-165] | – | IC50 [1]: 2 nM

Row | Compound | IC50 (read-out: IC50 (SOS1)) | also measured
28 | COc1cc2nc(C)nc(N[C@H](C)c3cc(N)cc(C(F)(F)F)c3C)c2cc1[C@H]1CC[C@H](C(=O)N(C)C)CC1 [I-248] | 2 nM | –
29 | COc1cc2nc(C)nc(N[C@H](C)c3cccc(C)c3)c2cc1-c1ccc(=O)n(CC(=O)N(C)C)c1 [I-335] | – | IC50 [2]: 27 nM
30 | CC(=O)O[C@H]1CC[C@](O)(c2ccc3nc(C)nc(N[C@H](C)c4cccc(C(F)(F)F)c4)c3c2)CC1 [I-67] | – | IC50 [1]: 26 nM
31 | COc1cc2nc(C)nc(N[C@H](C)c3cccc(C(F)(F)F)c3C)c2cc1[C@H]1CC[C@H](C(=O)N(C)C)CC1 [I-296] | 7 nM | –
32 | Cc1cccc([C@@H](C)Nc2nc(C)nc3cc(C)c(-c4ccc(C(=O)N5CCOCC5)cc4)cc23)c1 [I-83] | 44 nM | –
33 | Cc1nc(N[C@H](C)c2cccc(C(F)(F)F)c2)c2cc(-c3cnn(CC(=O)N(C)C)c3)ccc2n1 [I-85] | – | IC50 [2]: 41 nM
34 | COCC(=O)N1CCC(c2cc3c(N[C@H](C)c4cc(N)cc(C(F)(F)F)c4)nc(C)nc3cc2C)CC1 [I-315] | 3 nM | –
35 | COc1cc2nc(C)nc(N[C@H](C)c3cccc(C(F)(F)F)c3)c2cc1-c1ccc(C(=O)N(C)C)cn1 [I-191] | – | IC50 [1]: 35 nM
36 | Cc1cccc([C@@H](C)Nc2nc(C)nc3ccc(C4CC[S+]([O-])CC4)cc23)c1 (some centres unmarked) [I-160] | – | IC50 [3]: 22 nM
37 | COCC(=O)N1CCC(c2ccc3nc(C)nc(N[C@H](C)c4cc(N)cc(C(F)(F)F)c4)c3c2)CC1 [I-314] | 2 nM | –
38 | Cc1nc(N[C@H](C)c2cc(N)cc(C(F)(F)F)c2)c2cc(C3=CCS(=O)(=O)CC3)cc(C)c2n1 [I-364] | 11 nM | –
39 | Cc1nc(N[C@H](C)c2cccc(C(F)(F)F)c2)c2cc(-c3ccc(=O)n(CC(=O)N(C)C)c3)ccc2n1 [I-333] | – | IC50 [2]: 26 nM
40 | COc1cc2nc(C)nc(N[C@H](C)c3cccc(C(F)(F)F)c3)c2cc1-c1ccc(C(=O)N(C)C)c(C)c1 [I-216] | 48 nM | –
41 | Cc1nc(N[C@H](C)c2cc(N)cc(C(F)(F)F)c2)c2cc(-c3cc4n(n3)CCC(=O)N4)ccc2n1 [I-90] | 7 nM | –
42 | COc1cc2nc(C)nc(N[C@H](C)c3cccc(C(F)(F)CO)c3)c2cc1C1=CCN(C(C)=O)CC1 [I-287] | 2 nM | –
43 | COc1cc2nc(C)nc(N[C@H](C)c3cccc(C(F)(F)CO)c3)c2cc1C1=CCC(C(=O)N(C)C)CC1 (some centres unmarked) [I-285] | 2 nM | –
44 | CC(=O)N1CCC(c2ccc3nc(C)nc(N[C@H](C)c4cccc(C(F)(F)F)c4)c3c2)CC1 [I-280] | 17 nM | –
45 | Cc1nc(N[C@H](C)c2cc(N)cc(C(F)(F)F)c2)c2cc([C@H]3CC[C@@H](C(=O)N(C)[C@@H]4CCOC4)CC3)ccc2n1 [I-243] | 9 nM | –
46 | Cc1cccc([C@@H](C)Nc2nc(C)nc3c(C)cc(C4CCN(C5CCOC5)CC4)cc23)c1 (some centres unmarked) [I-290] | – | IC50 [1]: 28 nM
47 | CC(=O)N1CCC(O)(c2cc(C)c3nc(C)nc(N[C@H](C)c4cccc(C(F)(F)F)c4)c3c2)CC1 [I-43] | – | IC50 [1]: 8 nM
48 | Cc1nc(N[C@H](C)c2cc(N)cc(C(F)(F)F)c2)c2cc([C@H]3CC[C@H](C(=O)N(C)[C@@H]4CCOC4)CC3)ccc2n1 [I-242] | 5 nM | –
49 | Cc1nc(N[C@H](C)c2cc(N)cc(C(F)(F)F)c2)c2cc([C@H]3CC[C@@H](C(=O)N(C)C)CC3)ccc2n1 [I-299] | 10 nM | –
50 | Cc1nc(N[C@H](C)c2cc(N)cc(C(F)(F)F)c2)c2cc([C@H]3CC[C@@H](O)CC3)ccc2n1 [I-66] | – | IC50 [1]: 43 nM
51 | Cc1cccc([C@@H](C)Nc2nc(C)nc3ccc([C@H]4CC[C@H](C(=O)N(C)C)CC4)cc23)c1 [I-264] | 13 nM | –
52 | CC(=O)N1CC[C@H](Oc2cc3c(N[C@H](C)c4cc(N)cc(C(F)(F)F)c4)nc(C)nc3cc2C)C1 [I-9] | – | IC50 [1]: 3 nM
53 | CCN(C)C(=O)[C@H]1CC[C@H](c2ccc3nc(C)nc(N[C@H](C)c4cc(N)cc(C(F)(F)F)c4)c3c2)CC1 [I-238] | 3 nM | –
